Experimental findings from US20260193294A1, “POLYPEPTIDE INHIBITOR, AND PREPARATION METHOD THEREFOR AND USE THEREOF” (SHANGHAI HANSOH BIOMEDICAL CO., LTD., priority 2022, published 2026) are described below.

Data set [1] concerns IL23-induced rat otitis model. Briefly: In vivo pharmacodynamics in IL23-induced rat otitis model (ear thickening). The conditions noted are these: 10 mg/kg, gavage, BID. On the set-up: species or system SD rats. The source says:
To evaluate the in vivo efficacy of the compounds in an IL23-induced rat otitis model.
SD rats, 6-8 weeks old, male, purchased from Jiangsu GemPharmatech Co., Ltd.
• a. […]

Data set [2] can be described thus: Pharmacokinetic determination in rats (IV). The conditions noted are these: male, SD, rat, plasma, 1 mg/kg.
Description: SD rats were used as test animals to study the pharmacokinetic behavior of the compounds of the examples in the rats (plasma) after oral or IV administration.
Preparation of intravenous drug: PBS
The compounds of the examples were weighed and dissolved in this solution, vortexed, ultrasonicated for 5 min, and filtered through a 0.22 μm filter membrane to obtain colorless clear solutions with a concentration of 0.2 mg/mL.
3 SD rats/group, male were fasted overnight and then respectively administered IV at a dose of 1 mg/kg and a volume of 5 mL/kg.
• Before administration and at 0.083 h, 0.25 h, 0.5 h, 1.0 h, 2.0 h, 4.0 h, 6.0 h, 8.0 h, and 24.0 h after administration (IV), 0.2 mL of blood was collected from the jugular vein, placed in an EDTA-2K test tube, and centrifuged at 6000 rpm for 6 min at 4° C. to separate plasma, which was stored at −20° C.; and the rats were fed 4 h after administration.
1) Acetonitrile (200 μL) was added to the plasma sample (50 μL) for precipitation, and the mixture was mixed and centrifuged at 4500 rpm for 15 min.
(§1) 2) The treated supernatant solution was taken and subjected to LC/MS/MS to analyze the concentrations of the test compounds. LC/MS/MS analysis instrument: AB Sciex Triple Quad 6500+.
• Liquid phase conditions: Shimadzu LC-30AD pump • Chromatographic column: HALO 90A PFP 2.7 μm 2.1×30 mm, mobile phase: liquid A: 5% acetonitrile aqueous solution (0.1% formic acid), and liquid B: an aqueous solution of 95% acetonitrile (0.1% formic acid) • Flow rate: 0.6 mL/min • Elution time: 0-2.0 min, the eluent was as follows:
(§2) The main pharmacokinetic parameters were calculated using WinNonlin 8.1.
Data set [3] can be described thus: Pharmacokinetic determination in beagle dogs (IV). The conditions noted are these: male, dog, plasma, 0.2 mg/kg.
Description: Beagle dogs were used as test animals to study the pharmacokinetic behavior of the compounds of the examples in the rats (plasma) after IV administration.
3 beagle dogs/group, male, from Yizheng Anlimao Biotechnology Co., Ltd.
The compounds of the examples were weighed and dissolved in this solution, vortexed, ultrasonicated for 5 min, and filtered through a 0.22 μm filter membrane to obtain colorless clear solutions with a concentration of 0.1 mg/mL.
3 beagle dogs/group, male were fasted overnight and then respectively administered IV at a dose of 0.2 mg/kg and a volume of 2 mL/kg.
1) Acetonitrile (200 μL) was added to the plasma sample (50 L) for precipitation, and the mixture was mixed and centrifuged at 4500 rpm for 15 min.
as §1
Premier Peptide CSH C18 130A 1.7 μm 2.1*100 mm Column, mobile phase: liquid A: 5% acetonitrile aqueous solution (0.1% formic acid), and liquid B: an aqueous solution of 95% acetonitrile (0.1% formic acid) • Flow rate: 0.6 mL/min • Elution time: 0-2.0 min, the eluent was as follows:
as §2

Positions of bridges follow the written chain, without caps; N, C: chain ends. Non-standard residues stand in square brackets, D forms with d. Residues, ends and D or L forms follow the SMILES beside them. Trp(7-Me) = Cc1cccc2c(C[C@H](N)C(=O)O)c[nH]c12; 2Nal = N[C@@H](Cc1ccc2ccccc2c1)C(=O)O; AEF = NCCOc1ccc(C[C@H](N)C(=O)O)cc1; 3Pal = N[C@@H](Cc1cccnc1)C(=O)O; Pen = CC(C)(S)[C@H](N)C(=O)O; Thp = NC1(C(=O)O)CCOCC1; Sar = CNCC(=O)O

With `CC(=O)NCCCC[C@@H]1NC(=O)[C@H](Cc2c[nH]c3c(C)cccc23)NC(=O)[C@H]([C@@H](C)O)NC(=O)[C@H](CC(N)=O)NC(=O)[C@@H](NC(C)=O)C(C)(C)SSC(C)(C)[C@@H](C(=O)N[C@@H](Cc2ccc(OCCN)cc2)C(=O)N[C@@H](Cc2ccc3ccccc3c2)C(=O)NC2(C(=O)N[C@@H](CCC(=O)O)C(=O)N[C@@H](CC(N)=O)C(=O)N[C@@H](Cc3cccnc3)C(=O)N(C)CC(N)=O)CCOCC2)NC1=O` [PN-235, reference compound] (Ac-[Pen]NT[Trp(7-Me)]K(Ac)[Pen][AEF][2Nal][Thp]EN[3Pal][Sar]-NH2; disulfide 1-6 (inferred); N-terminus and C-terminus assumed), the “Inhibition rate on Day 4 (ear thickening)” value in data set [1] is 55.35%. In addition, in data set [2], the total exposure AUC(0-inf) (as a rule, total exposure, with the tail of the curve extrapolated) was found to be 2670 ng·h/mL; the area under the curve AUC(0-t) (in general, exposure summed from dosing to a finite time, without extrapolation to infinity) worked out at 2620 ng·h/mL; the C0 was determined as 4290 ng/mL; the MRT (usually the average time that molecules of a dose stay in the body) is 0.9 h. Also, in data set [2], the clearance (commonly the rate of elimination divided by the concentration) turned out to be 6.2 mL/min/kg and the half-life (usually how long it takes for the measured level to halve) was 0.7 h. In addition, in data set [3], the area under the curve AUC(0-inf) came out at 2030 ng·h/mL, the AUC(0-t) is 2020 ng·h/mL, the C0 was found to be 1250 ng/mL and the MRT was 3.1 h. In data set [3], this compound showed a clearance of 1.68 mL/min/kg and a half-life of 4.1 h.
